{"source": "paper PMC7576618", "about": "(British Journal of Clinical Pharmacology, 2020)", "key": {"[1]": {"assay": "SAD study: plasma pharmacokinetics after single oral TS-134", "assay_type": "in vivo, human", "conditions": "for AUC0‐inf, mean (CV[%]) / Cmax, mean (CV[%]) / t1/2, mean (CV[%]) / tmax, median: plasma"}, "[2]": {"assay": "MAD study: plasma pharmacokinetics after multiple oral dose titration of TS-134", "assay_type": "in vivo, human", "conditions": "for AUC0‐tau, mean (CV[%]) / Cmax, mean (CV[%]) / t1/2, mean (CV[%]) / tmax, median: plasma, MAD Day 14, fed"}, "[3]": {"conditions": "compared with monkeys; cited from earlier work"}, "[4]": {"conditions": "SAD Parts A and C, 5 mg fasted (n = 6)"}, "[5]": {"conditions": "SAD Parts A and C, 10 mg fasted (n = 4)"}, "[6]": {"conditions": "SAD Parts A and C, 10 mg fed (n = 3)"}, "[7]": {"conditions": "SAD Parts A and C, 20 mg fasted (n = 3)"}, "[8]": {"conditions": "SAD Parts A and C, 20 mg fed (n = 3)"}}, "note": "Marks after values point to notes of the source that are not given here."}
{"compound": "CC(C)[C@@H]1CC[C@@H](C)C[C@H]1OC(=O)O[C@@H](C)OC(=O)[C@H]1[C@@H]2C[C@H](F)[C@@](N)(C(=O)O)[C@@H]21", "note": "[MGS0274]", "values": [{"measurement": "reduction of plasma AUC in the fed group (food effect)", "setting": "[1]; SAD, 10 and 20 mg TS‐134", "result": "almost no food effect"}, {"measurement": "reduction of plasma Cmax in the fed group (food effect)", "setting": "[1]; SAD, 10 and 20 mg TS‐134", "result": "up to 45%"}, {"measurement": "plasma AUC of MGS0274 as share of the AUC of MGS0008", "setting": "[1]; molar ratio, single and multiple oral administration, all treatment groups", "result": "approximately 3%"}, {"measurement": "AUC0‐inf, mean (CV[%])", "setting": "[1]; SAD Part B, 10 mg fed (n = 6)", "result": "36.47 ^e (61.58) h•ng mL^−1"}, {"measurement": "Cmax, mean (CV[%])", "setting": "[1]; SAD Part B, 10 mg fed (n = 7)", "result": "13.00 (82.69) ng mL^−1"}, {"measurement": "t1/2, mean (CV[%])", "setting": "[1]; SAD Part B, 10 mg fed (n = 7)", "result": "1.377 ^e (26.45) h"}, {"measurement": "tmax, median", "setting": "[1]; SAD Part B, 10 mg fed (n = 7)", "result": 30, "unit": "min"}, {"measurement": "AUC0‐inf, mean (CV[%])", "setting": "[1]; [4]", "result": "23.94 ^c (30.64) h•ng mL^−1"}, {"measurement": "Cmax, mean (CV[%])", "setting": "[1]; [4]", "result": "13.43 (55.44) ng mL^−1"}, {"measurement": "t1/2, mean (CV[%])", "setting": "[1]; [4]", "result": "1.013 ^c (35.22) h"}, {"measurement": "tmax, median", "setting": "[1]; [4]", "result": 30, "unit": "min"}, {"measurement": "AUC0‐inf, mean (CV[%])", "setting": "[1]; [5]", "result": "29.33 (31.92) h•ng mL^−1"}, {"measurement": "Cmax, mean (CV[%])", "setting": "[1]; [5]", "result": "17.88 (40.87) ng mL^−1"}, {"measurement": "t1/2, mean (CV[%])", "setting": "[1]; [5]", "result": "0.8765 (17.66) h"}, {"measurement": "tmax, median", "setting": "[1]; [5]", "result": 60, "unit": "min"}, {"measurement": "AUC0‐inf, mean (CV[%])", "setting": "[1]; [6]", "result": "22.69 (8.60) h•ng mL^−1"}, {"measurement": "Cmax, mean (CV[%])", "setting": "[1]; [6]", "result": "8.137 (16.40) ng mL^−1"}, {"measurement": "t1/2, mean (CV[%])", "setting": "[1]; [6]", "result": "1.505 (7.14) h"}, {"measurement": "tmax, median", "setting": "[1]; [6]", "result": 15, "unit": "min"}, {"measurement": "AUC0‐inf, mean (CV[%])", "setting": "[1]; [7]", "result": "72.09 (50.40) h•ng mL^−1"}, {"measurement": "Cmax, mean (CV[%])", "setting": "[1]; [7]", "result": "49.07 (66.56) ng mL^−1"}, {"measurement": "t1/2, mean (CV[%])", "setting": "[1]; [7]", "result": "1.477 (14.30) h"}, {"measurement": "tmax, median", "setting": "[1]; [7]", "result": 15, "unit": "min"}, {"measurement": "AUC0‐inf, mean (CV[%])", "setting": "[1]; [8]", "result": "84.30 ^d (16.80) h•ng mL^−1"}, {"measurement": "Cmax, mean (CV[%])", "setting": "[1]; [8]", "result": "33.27 (45.09) ng mL^−1"}, {"measurement": "t1/2, mean (CV[%])", "setting": "[1]; [8]", "result": "1.669 ^d (7.05) h"}, {"measurement": "tmax, median", "setting": "[1]; [8]", "result": 30, "unit": "min"}, {"measurement": "dose proportionality of steady‐state plasma Cmax and AUC", "setting": "[2]; MAD, 5–80 mg", "result": "dose proportional increases"}, {"measurement": "AUC0‐tau, mean (CV[%])", "setting": "[2]; 5 mg (n = 8)", "result": "14.90 (37.92) h•ng mL^−1"}, {"measurement": "Cmax, mean (CV[%])", "setting": "[2]; 5 mg (n = 8)", "result": "6.090 (79.22) ng mL^−1"}, {"measurement": "t1/2, mean (CV[%])", "setting": "[2]; 5 mg (n = 8)", "result": "1.247 (40.98) h"}, {"measurement": "tmax, median", "setting": "[2]; 5 mg (n = 8)", "result": 60, "unit": "min"}, {"measurement": "AUC0‐tau, mean (CV[%])", "setting": "[2]; 10 mg (n = 8)", "result": "29.40 (23.81) h•ng mL^−1"}, {"measurement": "Cmax, mean (CV[%])", "setting": "[2]; 10 mg (n = 8)", "result": "13.91 (51.77) ng mL^−1"}, {"measurement": "t1/2, mean (CV[%])", "setting": "[2]; 10 mg (n = 8)", "result": "1.212 (35.09) h"}, {"measurement": "tmax, median", "setting": "[2]; 10 mg (n = 8)", "result": 30, "unit": "min"}, {"measurement": "AUC0‐tau, mean (CV[%])", "setting": "[2]; 20 mg (n = 8)", "result": "56.36 (48.86) h•ng mL^−1"}, {"measurement": "Cmax, mean (CV[%])", "setting": "[2]; 20 mg (n = 8)", "result": "26.92 (66.42) ng mL^−1"}, {"measurement": "t1/2, mean (CV[%])", "setting": "[2]; 20 mg (n = 8)", "result": "1.567 (39.16) h"}, {"measurement": "tmax, median", "setting": "[2]; 20 mg (n = 8)", "result": 30, "unit": "min"}, {"measurement": "AUC0‐tau, mean (CV[%])", "setting": "[2]; 40 mg (n = 8)", "result": "122.0 (29.47) h•ng mL^−1"}, {"measurement": "Cmax, mean (CV[%])", "setting": "[2]; 40 mg (n = 8)", "result": "40.38 (29.69) ng mL^−1"}, {"measurement": "t1/2, mean (CV[%])", "setting": "[2]; 40 mg (n = 8)", "result": "4.711 (52.68) h"}, {"measurement": "tmax, median", "setting": "[2]; 40 mg (n = 8)", "result": 60, "unit": "min"}, {"measurement": "AUC0‐tau, mean (CV[%])", "setting": "[2]; 60 mg (n = 8)", "result": "170.0 (23.85) h•ng mL^−1"}, {"measurement": "Cmax, mean (CV[%])", "setting": "[2]; 60 mg (n = 8)", "result": "95.14 (42.43) ng mL^−1"}, {"measurement": "t1/2, mean (CV[%])", "setting": "[2]; 60 mg (n = 8)", "result": "7.549 (93.72) h"}, {"measurement": "tmax, median", "setting": "[2]; 60 mg (n = 8)", "result": 60, "unit": "min"}, {"measurement": "AUC0‐tau, mean (CV[%])", "setting": "[2]; 80 mg Cohort 5 (n = 7)", "result": "142.0 (19.40) h•ng mL^−1"}, {"measurement": "Cmax, mean (CV[%])", "setting": "[2]; 80 mg Cohort 5 (n = 7)", "result": "85.27 (43.68) ng mL^−1"}, {"measurement": "t1/2, mean (CV[%])", "setting": "[2]; 80 mg Cohort 5 (n = 7)", "result": "10.52 (57.99) h"}, {"measurement": "tmax, median", "setting": "[2]; 80 mg Cohort 5 (n = 7)", "result": 60, "unit": "min"}, {"measurement": "AUC0‐tau, mean (CV[%])", "setting": "[2]; 80 mg Cohort 6 (n = 6)", "result": "203.9 (24.30) h•ng mL^−1"}, {"measurement": "Cmax, mean (CV[%])", "setting": "[2]; 80 mg Cohort 6 (n = 6)", "result": "98.55 (37.09) ng mL^−1"}, {"measurement": "t1/2, mean (CV[%])", "setting": "[2]; 80 mg Cohort 6 (n = 6)", "result": "6.810 (23.98) h"}, {"measurement": "tmax, median", "setting": "[2]; 80 mg Cohort 6 (n = 6)", "result": 30, "unit": "min"}, {"measurement": "hydrolytic activity against MGS0274 in the human liver S9 fraction", "setting": "[3]", "result": "comparable to that in monkeys"}]}
